In brackets after ≈: the same amount, converted by molar mass. Like-named read-outs stand apart in the source and are kept apart here.
What was measured:
S. capitis [1] = test: SDFAST antimicrobial susceptibility test (WST-8), clinical Staphylococcus strains; assay type: cell-based
Protocol: (§1) SDFAST (Self Dilution for Faster Antimicrobial Susceptibility Testing) involved a relatively simple mechanism with three phases: loading, droplet formation, and mixing (FIG. 3A). In the loading phase, a bacteria sample with a colorimetric indicator (CCK-8, cell counting kit-8) was injected into the constant-volume channels, while the antibiotic solution is injected into the varied-volume channels. In the droplet formation phase, the upper chip was slipped, forming droplets. In the mixing phase, the bacteria sample was mixed with the antibiotic solution. […] The well before the abrupt color change represented the minimum inhibitory concentration (MIC) of the bacteria with the antibiotic.
(§2) The solutions were injected using a micropipette with 0.1-20 μL tips. For lines with constant volume, 20 μL solution was required to fill up one entire line, while for lines with varied volumes, 10 μL solution was required. The excess solution was expelled from the hole adjacent to the end side of each line and could be wiped with KimWipes. After filling the wells, the chips were slid so that the lower line aligned and overlapped with the upper line, allowing the solutions to mix. Subsequently, the chips were placed inside a Petri dish containing FC-40, and the dish was sealed with parafilm. The dish was then incubated at 37° C. for 6 hours before color analysis using ImageJ.
(§3) They were obtained from the Department of Microbiology, Queen Mary Hospital, Hong Kong (Patient samples). Vancomycin hydrochloride solution (100 mg/mL in DMSO, Sigma-Aldrich) was diluted with DI water to desired concentrations for each strain. The results were compared to those obtained by E-test from the Department of Microbiology.

S. caprae [2] = test: as above; assay type: cell-based
Protocol: as §1, §2, §3

S. haemolyticus [3] = test: as above; assay type: cell-based; conditions: S. haemolyticus 901622-2
Protocol: as §1, §2, §3

S. aureus [4] = test: as above; assay type: cell-based
Protocol: as §1, §2, §3

S. caprae [5] = conditions: cited from earlier work
S. aureus [6] = conditions: cited from earlier work
S. haemolyticus [7] = conditions: S. haemolyticus 901622-2; cited from earlier work
S. capitis [8] = conditions: cited from earlier work
K. pneumoniae [9] = test: Broth microdilution; assay type: cell-based; conditions: Klebsiella pneumoniae
Protocol: (§4) Currently, AST is mostly commonly conducted by the broth microdilution method^3,4, in which the antibiotic solution of the desired concentration is prepared, injected into a microwell, and diluted serially from well to well. Afterward, an equal volume of bacteria solution is introduced to every microwell with antibiotics of varied concentrations, and the well-plate is incubated overnight. In the end, MIC is determined by observing and analyzing the turbidity of each well, and the well with the lowest concentration of antibiotic showing no turbidity represents the MIC^5. […] Another common yet less complex method is disc diffusion^7. In this technique, bacteria are initially cultured on Mueller-Hinton agar. Subsequently, antimicrobial discs are positioned on the agar plate, and the plate is left to incubate overnight. The diameters of inhibition zones, the regions where bacteria are being killed, are then measured, and these values are compared to reference standards to ascertain susceptibility. This method is used for qualitative determination of bacterial susceptibility, in which the bacteria are determined to be “resistant”, “intermediate,” or “susceptible” from the results. Despite its widespread use, this method has several drawbacks. […] Additionally, it is time-consuming, requiring 16 to 24 hours to produce results, and must be conducted in a laboratory^8,9. Consequently, an alternative approach that is portable, user-friendly, and time-efficient needs to be developed for rapid MIC determination.

E. coli [10] = test: Broth microdilution; assay type: cell-based; conditions: Escherichia coli
Protocol: as §4

A. baumannii [11] = test: Broth microdilution; assay type: cell-based; conditions: Acinetobacter baumannii
Protocol: as §4

K. pneumoniae [12] = test: SDFAST antimicrobial susceptibility test (WST-8 colorimetric); assay type: cell-based; conditions: Klebsiella pneumoniae, WST-8, 37° C., 6 hours
Protocol: as §1, §2
The bacteria were cultured on an agar plate and incubated in Mueller-Hinton Broth (MHB, Sigma-Aldrich) at 37° C. overnight. The culture solution was then diluted 1000 times with MHB and mixed with 5% WST-8 indicator (Beyotime). […]
(§5) In the present invention, the SDFAST was operated with the water-soluble tetrazolium salt-8 (WST-8) assay, in which four prevalent bacteria, Acinetobacter baumannii (A. baumannii), Escherichia coli (E. coli), Klebsiella pneumoniae (K. pneumoniae) and clinical samples containing Staphylococcus species were tested under various antibiotics. […] After the identification, the MIC value was calculated based on dilution rates.

E. coli [13] = test: as above; assay type: cell-based; conditions: Escherichia coli, WST-8, 37° C., 6 hours
Protocol: as §1, §2
(§6) The bacteria were cultured on an agar plate and incubated in Mueller-Hinton Broth (MHB, Sigma-Aldrich) at 37° C. overnight. The culture solution was then diluted 1000 times with MHB and mixed with 5% WST-8 indicator (Beyotime). The antibiotic solutions were prepared by dissolving the desired amount of antibiotics (solid or liquid) into DI water, and the solutions were diluted by DI water according to the desired concentrations to be tested.
as §5, with “The colourless or very pale yellow well before” for “After”, “abrupt change in each line represented” for “identification,”, “corresponding MIC, which could be easily identified by the naked eyes.” for “MIC value was calculated based on dilution rates.”

A. baumannii [14] = test: as above; assay type: cell-based; conditions: Acinetobacter baumannii, WST-8, 37° C., 6 hours
Protocol: as §1, §2, §6
as §5, with “The colourless or very pale yellow well before” for “After”, “abrupt change in each line represented” for “identification,”, “corresponding MIC, which could be easily identified by the naked eyes.” for “MIC value was calculated based on dilution rates.”

With `CN[C@H](CC(C)C)C(=O)N[C@H]1C(=O)N[C@@H](CC(N)=O)C(=O)N[C@H]2C(=O)N[C@H]3C(=O)N[C@H](C(=O)N[C@H](C(=O)O)c4cc(O)cc(O)c4-c4cc3ccc4O)[C@H](O)c3ccc(c(Cl)c3)Oc3cc2cc(c3O[C@@H]2O[C@H](CO)[C@@H](O)[C@H](O)[C@H]2O[C@H]2C[C@](C)(N)[C@H](O)[C@H](C)O2)Oc2ccc(cc2Cl)[C@H]1O` [Vancomycin] the MIC (S. capitis [1]; S. capitis 901820-1) was 1 µg/mL (≈ 0.69 µM), the MIC (S. capitis [1]; S. capitis 902278-2) was 1 µg/mL (≈ 0.69 µM) and the MIC (S. capitis [1]; S. capitis 902530-2) was 0.55 µg/mL (≈ 0.38 µM). The MIC (S. caprae [2]; S. caprae 901820-2) was 1.56 µg/mL (≈ 1.08 µM), the MIC (S. caprae [2]; S. caprae 902278-1) was 0.195 µg/mL (≈ 0.135 µM) and the MIC (S. caprae [2]; S. caprae 903211) was 0.5 µg/mL (≈ 0.345 µM). For the same molecule, the MIC (S. caprae [2]; S. caprae 903522) was 1.11 µg/mL (≈ 0.766 µM), the MIC (S. haemolyticus [3]) was 1.56 µg/mL (≈ 1.08 µM) and the MIC (S. aureus [4]; S. aureus 900967) was 1 µg/mL (≈ 0.69 µM). It also gave an MIC (S. aureus [4]; S. aureus 901089) of 1 µg/mL (≈ 0.69 µM), an MIC (S. aureus [4]; S. aureus 901763) of 0.5 µg/mL (≈ 0.345 µM) and an MIC (S. aureus [4]; S. aureus 902126) of 0.77 to 1.4 µg/mL (≈ 0.531 to 0.966 µM). For the same molecule, the MIC (S. aureus [4]; S. aureus 902154) was 0.94 µg/mL (≈ 0.649 µM), the MIC (S. aureus [4]; S. aureus 902395) was 0.5 µg/mL (≈ 0.345 µM) and the MIC (S. aureus [4]; S. aureus 903245) was 1.4 µg/mL (≈ 0.966 µM). The MIC (S. aureus [4]; S. aureus 932674) was 0.77 to 1.4 µg/mL (≈ 0.531 to 0.966 µM), the “MIC, E-test (reference value)” value (S. caprae [5]; S. caprae 901820-2) was 1.5 µg/mL (≈ 1.04 µM) and the “MIC, E-test (reference value)” value (S. caprae [5]; S. caprae 902278-1) was 0.19 µg/mL (≈ 0.131 µM). The “MIC, E-test (reference value)” value (S. caprae [5]; S. caprae 903211) was 0.5 µg/mL (≈ 0.345 µM), the “MIC, E-test (reference value)” value (S. caprae [5]; S. caprae 903522) was 1 µg/mL (≈ 0.69 µM) and the “MIC, E-test (reference value)” value (S. aureus [6]; S. aureus 900967) was 1 µg/mL (≈ 0.69 µM). For the same molecule, the “MIC, E-test (reference value)” value (S. aureus [6]; S. aureus 901089) was 1 µg/mL (≈ 0.69 µM), the “MIC, E-test (reference value)” value (S. aureus [6]; S. aureus 901763) was 0.5 µg/mL (≈ 0.345 µM) and the “MIC, E-test (reference value)” value (S. aureus [6]; S. aureus 902126) was 0.75 µg/mL (≈ 0.518 µM). For the same molecule, the “MIC, E-test (reference value)” value (S. aureus [6]; S. aureus 902154) was 0.5 µg/mL (≈ 0.345 µM), the “MIC, E-test (reference value)” value (S. aureus [6]; S. aureus 902395) was 0.5 µg/mL (≈ 0.345 µM) and the “MIC, E-test (reference value)” value (S. aureus [6]; S. aureus 903245) was 0.75 µg/mL (≈ 0.518 µM). The “MIC, E-test (reference value)” value (S. aureus [6]; S. aureus 932674) was 0.75 µg/mL (≈ 0.518 µM), the “MIC, E-test (reference value)” value (S. haemolyticus [7]) was 1.5 µg/mL (≈ 1.04 µM) and the “MIC, E-test (reference value)” value (S. capitis [8]; S. capitis 901820-1) was 1 µg/mL (≈ 0.69 µM). The “MIC, E-test (reference value)” value (S. capitis [8]; S. capitis 902278-2) was 1 µg/mL (≈ 0.69 µM) and the “MIC, E-test (reference value)” value (S. capitis [8]; S. capitis 902530-2) was 0.5 µg/mL (≈ 0.345 µM).
Work on `CC(C)(O/N=C(\C(=O)N[C@@H]1C(=O)N2C(C(=O)[O-])=C(C[n+]3ccccc3)CS[C@H]12)c1csc(N)n1)C(=O)O` [CTZ, Ceftazidime] yielded an MIC (K. pneumoniae [9]) of 125 µg/mL (≈ 229 µM), an MIC (E. coli [10]) of 62.5 µg/mL (≈ 114 µM) and an MIC (A. baumannii [11]) of 62.5 to 125 µg/mL (≈ 114 to 229 µM). For the same molecule, the MIC (K. pneumoniae [12]) was 62.5 µg/mL (≈ 114 µM), the MIC (E. coli [13]) was 62.5 µg/mL (≈ 114 µM) and the MIC (A. baumannii [14]) was 62.5 µg/mL (≈ 114 µM).
For `O=C(O)c1cn(C2CC2)c2cc(N3CCNCC3)c(F)cc2c1=O` [CIP, Ciprofloxacin], the MIC (K. pneumoniae [12]) was 6.25 µg/mL (≈ 18.9 µM).
In the case of `C[C@H]1COc2c(N3CCN(C)CC3)c(F)cc3c(=O)c(C(=O)O)cn1c23` [LEV, Levofloxacin], the MIC (K. pneumoniae [9]) is reported as 50 µg/mL (≈ 138 µM), the MIC (E. coli [10]) is reported as 12.5 µg/mL (≈ 34.6 µM) and the MIC (A. baumannii [11]) is reported as 100 µg/mL (≈ 277 µM). It also gave an MIC (K. pneumoniae [12]) of 50 µg/mL (≈ 138 µM), an MIC (E. coli [13]) of 12.5 µg/mL (≈ 34.6 µM) and an MIC (A. baumannii [14]) of 100 µg/mL (≈ 277 µM).

From patent publication US20250101487A1, “SELF-DILUTING MICROFLUIDIC DEVICE FOR RAPID ANTIMICROBIAL SUSCEPTIBILITY TESTS” (The University of Hong Kong, priority 2023, published 2025)
